Numbered stars: 1 amine (or outer) side, 2 acyl side, 3 side chain; on linkers, the order of the positions; unused ones are H or OH. Peptide text beside a SMILES is read from it. * marks the point of attachment. C20 diacid = O=C(O)CCCCCCCCCCCCCCCCCCC(=O)*; C18 diacid = O=C(O)CCCCCCCCCCCCCCCCC(=O)*; γGlu = O=C(O)[C@H](CCC(=O)[*:2])N[*:1]
Experiments:
[1] = target: T1, Amylin receptor AMY3; CALCR/RAMP3 (Homo sapiens, UniProt O60896+P30988); assay: Agonist activity at human amylin receptor expressed in BHK570 cells co-expressing RAMP3 assessed as increase in intracellular cAMP concentration incubated for 3 hrs in absence of albumin by CRE luciferase reporter gene assay; assay type: functional, cell-based
T1 sequence (P30988 whole entry): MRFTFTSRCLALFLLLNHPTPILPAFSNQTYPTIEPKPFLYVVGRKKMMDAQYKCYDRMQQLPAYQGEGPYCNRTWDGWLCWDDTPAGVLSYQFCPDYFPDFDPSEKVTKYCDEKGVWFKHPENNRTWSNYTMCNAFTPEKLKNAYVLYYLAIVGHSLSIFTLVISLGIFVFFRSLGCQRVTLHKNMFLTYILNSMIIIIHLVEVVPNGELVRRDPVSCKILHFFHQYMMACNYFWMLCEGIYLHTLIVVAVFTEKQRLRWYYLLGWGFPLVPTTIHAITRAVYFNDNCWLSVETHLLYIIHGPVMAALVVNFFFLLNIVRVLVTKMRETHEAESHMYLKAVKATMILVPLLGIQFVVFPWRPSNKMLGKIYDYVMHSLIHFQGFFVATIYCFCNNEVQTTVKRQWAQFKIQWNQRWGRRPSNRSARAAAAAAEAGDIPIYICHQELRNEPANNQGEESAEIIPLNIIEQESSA
T1 sequence (O60896 whole entry): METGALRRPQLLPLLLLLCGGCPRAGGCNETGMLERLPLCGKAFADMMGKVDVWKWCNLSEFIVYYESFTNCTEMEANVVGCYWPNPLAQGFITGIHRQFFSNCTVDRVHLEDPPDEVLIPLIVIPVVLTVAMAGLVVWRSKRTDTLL

Calcitonin receptor [2] = target: T2, Calcitonin receptor (Homo sapiens, UniProt P30988); assay: Agonist activity at human calcitonin receptor expressed in BHK570 cells assessed as increase in intracellular cAMP concentration incubated for 3 hrs in absence of albumin by CRE luciferase reporter gene assay; assay type: functional, cell-based
T2 sequence (P30988 whole entry): T1 sequence (P30988 whole entry)

[3] = target: T1, Amylin receptor AMY3; CALCR/RAMP3; assay: Agonist activity at human amylin receptor expressed in BHK570 cells co-expressing RAMP3 assessed as increase in intracellular cAMP concentration incubated for 3 hrs in presence of 10% FBS by CRE luciferase reporter gene assay; assay type: functional, cell-based
Calcitonin receptor [4] = target: T2, Calcitonin receptor; assay: Agonist activity at human calcitonin receptor expressed in BHK570 cells assessed as increase in intracellular cAMP concentration incubated for 3 hrs in presence of 10% FBS by CRE luciferase reporter gene assay; assay type: functional, cell-based
[5] = Solubility in 100 mM glycylglycine buffer at pH 3.0 incubated for 18 hrs by UPLC analysis; assay type: physicochemical
[6] = Solubility in 100 mM glycylglycine buffer at pH 4.0 incubated for 18 hrs by UPLC analysis; assay type: physicochemical
[7] = Solubility in 100 mM bistrispropane buffer at pH 6.0 incubated for 18 hrs by UPLC analysis; assay type: physicochemical
[8] = Solubility in 100 mM glycylglycine buffer at pH 5.0 incubated for 18 hrs by UPLC analysis; assay type: physicochemical
[9] = Solubility in 100 mM bistrispropane buffer at pH 6.5 incubated for 18 hrs by UPLC analysis; assay type: physicochemical
[10] = Solubility in 100 mM bistrispropane buffer at pH 7.0 incubated for 18 hrs by UPLC analysis; assay type: physicochemical
[11] = Solubility in 100 mM bistrispropane buffer at pH 7.5 incubated for 18 hrs by UPLC analysis; assay type: physicochemical
[12] = Solubility in 100 mM bistrispropane buffer at pH 8.0 incubated for 18 hrs by UPLC analysis; assay type: physicochemical
[13] = target: T1, Amylin receptor AMY3; CALCR/RAMP3; assay: Displacement of [125I]-labeled rat amylin from human amylin receptor expressed in BHK tkts13 whole cells co-expressing RAMP3 incubated for 60 mins by scintillation proximity assay; assay type: cell-based

| SMILES | EC50 [1] | EC50 (Calcitonin receptor [2]) | EC50 [3] | EC50 (Calcitonin receptor [4]) | solubility at 18 h [5] | solubility at 18 h [6] | solubility at 18 h [7] | solubility at 18 h [8] | solubility at 18 h [9] | solubility at 18 h [10] | solubility at 18 h [11] | solubility at 18 h [12] | IC50 [13] |
| --- | --- | --- | --- | --- | --- | --- | --- | --- | --- | --- | --- | --- | --- |
| CC(C)C[C@H](NC(=O)[C@H](CCC(=O)O)NC(=O)[C@H](Cc1cnc[nH]1)NC(=O)[C@H](CC(C)C)NC(=O)[C@H](CCC(=O)O)NC(=O)[C@H](C)NC(=O)[C@H](CO)NC(=O)[C@H](CC(C)C)NC(=O)[C@H](CCCNC(=N)N)NC(=O)CNC(=O)[C@H](CC(C)C)NC(=O)[C@@H](NC(=O)[C@H](C)NC(=O)[C@@H](NC(=O)[C@H](CO)NC(=O)[C@H](CC(C)C)NC(=O)[C@H](CCC(=O)O)NC(=O)[C@H](CO)NC(=O)[C@H](C)NC(=O)CC[C@H](NC(=O)CCCCCCCCCCCCCCCCC(=O)O)C(=O)O)[C@@H](C)O)C(C)C)C(=O)N[C@@H](C)C(=O)N[C@H](C(=O)N[C@@H](CC(C)C)C(=O)N1CCC[C@H]1C(=O)N[C@@H](CCCNC(=N)N)C(=O)N[C@H](C(=O)N[C@@H](CCC(=O)O)C(=O)N[C@H](C(=O)NCC(=O)N[C@@H](CO)C(=O)NCC(=O)N[C@@H](CO)C(=O)N1CCC[C@H]1C(N)=O)[C@@H](C)O)[C@@H](C)O)[C@@H](C)O ({C18 diacid-γGlu}-ASELSTAVLGRLSAELHELATLPRTETGSGSP-NH2) | 0.01 nM | 0.014 nM | 0.017 nM | 0.011 nM | ≥ 200 µM | ≥ 200 µM | ≥ 200 µM | ≥ 200 µM | ≥ 200 µM | ≥ 200 µM | ≥ 200 µM | ≥ 200 µM | 0.764 nM |
| CC(C)C[C@H](NC(=O)[C@H](CCC(=O)O)NC(=O)[C@H](Cc1cnc[nH]1)NC(=O)[C@H](CC(C)C)NC(=O)[C@H](CCC(=O)O)NC(=O)[C@H](C)NC(=O)[C@H](CO)NC(=O)[C@H](CC(C)C)NC(=O)[C@H](CCCNC(=N)N)NC(=O)CNC(=O)[C@H](CC(C)C)NC(=O)[C@@H](NC(=O)[C@H](C)NC(=O)[C@@H](NC(=O)[C@@H](NC(=O)[C@H](CC(C)C)NC(=O)[C@H](CCC(=O)O)NC(=O)[C@H](CO)NC(=O)[C@H](C)NC(=O)CC[C@H](NC(=O)CCCCCCCCCCCCCCCCC(=O)O)C(=O)O)[C@@H](C)O)[C@@H](C)O)C(C)C)C(=O)N[C@@H](C)C(=O)N[C@H](C(=O)N[C@@H](CC(C)C)C(=O)N1CCC[C@H]1C(=O)N[C@@H](CCCNC(=N)N)C(=O)N[C@H](C(=O)N[C@@H](CCC(=O)O)C(=O)N[C@H](C(=O)NCC(=O)N[C@H](C(=O)NCC(=O)N[C@H](C(=O)N1CCC[C@H]1C(N)=O)[C@@H](C)O)[C@@H](C)O)[C@@H](C)O)[C@@H](C)O)[C@@H](C)O ({C18 diacid-γGlu}-ASELTTAVLGRLSAELHELATLPRTETGTGTP-NH2) | 0.065 nM | 0.032 nM | 0.052 nM | 0.013 nM | ≥ 200 µM | ≥ 200 µM | ≥ 200 µM | ≥ 200 µM | ≥ 200 µM | ≥ 200 µM | ≥ 200 µM | ≥ 200 µM | 2.15 nM |
| CC(C)C[C@H](NC(=O)CNC(=O)[C@H](CO)NC(=O)[C@H](C)NC(=O)CC[C@H](NC(=O)CCCCCCCCCCCCCCCCCCC(=O)O)C(=O)O)C(=O)N[C@@H](CO)C(=O)N[C@H](C(=O)N[C@@H](C)C(=O)N[C@@H](C)C(=O)N[C@@H](CC(C)C)C(=O)NCC(=O)N[C@@H](CCCNC(=N)N)C(=O)N[C@@H](CC(C)C)C(=O)N[C@@H](CO)C(=O)N[C@@H](C)C(=O)N[C@@H](CCC(=O)O)C(=O)N[C@@H](CC(C)C)C(=O)N[C@@H](Cc1cnc[nH]1)C(=O)N[C@@H](CCC(=O)O)C(=O)N[C@@H](CC(C)C)C(=O)N[C@@H](C)C(=O)N[C@H](C(=O)N[C@@H](Cc1ccc(O)cc1)C(=O)N1CCC[C@H]1C(=O)N[C@@H](CCCNC(=N)N)C(=O)N[C@H](C(=O)N[C@@H](CCC(=O)O)C(=O)N[C@H](C(=O)NCC(=O)N[C@@H](CO)C(=O)NCC(=O)N[C@@H](CO)C(=O)N1CCC[C@H]1C(N)=O)[C@@H](C)O)[C@@H](C)O)[C@@H](C)O)[C@@H](C)O ({C20 diacid-γGlu}-ASGLSTAALGRLSAELHELATYPRTETGSGSP-NH2) | 0.038 nM | 0.042 nM | 0.071 nM | 0.045 nM | ≥ 200 µM | ≥ 200 µM | ≥ 200 µM | ≥ 200 µM | ≥ 200 µM | ≥ 200 µM | ≥ 200 µM | ≥ 200 µM | 0.111 nM |
| CC(C)C[C@H](NC(=O)CNC(=O)[C@H](CO)NC(=O)[C@H](C)NC(=O)CC[C@H](NC(=O)CCCCCCCCCCCCCCCCCCC(=O)O)C(=O)O)C(=O)N[C@@H](CO)C(=O)N[C@H](C(=O)N[C@@H](C)C(=O)N[C@H](C(=O)N[C@@H](CC(C)C)C(=O)NCC(=O)N[C@@H](CCCNC(=N)N)C(=O)N[C@@H](CC(C)C)C(=O)N[C@@H](CO)C(=O)N[C@@H](CCC(N)=O)C(=O)N[C@@H](CCC(=O)O)C(=O)N[C@@H](CC(C)C)C(=O)N[C@@H](Cc1cnc[nH]1)C(=O)N[C@@H](CCC(=O)O)C(=O)N[C@@H](CC(C)C)C(=O)N[C@@H](CCC(N)=O)C(=O)N[C@H](C(=O)N[C@@H](Cc1ccc(O)cc1)C(=O)N1CCC[C@H]1C(=O)N[C@@H](CCCNC(=N)N)C(=O)N[C@H](C(=O)N[C@@H](CCC(=O)O)C(=O)N[C@H](C(=O)NCC(=O)N[C@@H](CO)C(=O)NCC(=O)N[C@H](C(=O)N[C@@H](Cc1ccc(O)cc1)C(N)=O)[C@@H](C)O)[C@@H](C)O)[C@@H](C)O)[C@@H](C)O)[C@@H](C)O)[C@@H](C)O ({C20 diacid-γGlu}-ASGLSTATLGRLSQELHELQTYPRTETGSGTY-NH2) | 0.04 nM | 0.034 nM | 0.122 nM | 0.092 nM | ≥ 200 µM | ≥ 200 µM | ≥ 200 µM |  | ≥ 200 µM | ≥ 200 µM | ≥ 200 µM | ≥ 200 µM | 0.079 nM |
| CC(C)C[C@H](NC(=O)CC[C@H](NC(=O)CCCCCCCCCCCCCCCCCCC(=O)O)C(=O)O)C(=O)N[C@@H](CO)C(=O)NCC(=O)N[C@@H](CC(C)C)C(=O)N[C@@H](CO)C(=O)N[C@H](C(=O)N[C@@H](C)C(=O)N[C@H](C(=O)N[C@@H](CC(C)C)C(=O)NCC(=O)N[C@@H](CCCNC(=N)N)C(=O)N[C@@H](CC(C)C)C(=O)N[C@@H](CO)C(=O)N[C@@H](C)C(=O)N[C@@H](CCC(=O)O)C(=O)N[C@@H](CC(C)C)C(=O)N[C@@H](Cc1cnc[nH]1)C(=O)N[C@@H](CCC(=O)O)C(=O)N[C@@H](CC(C)C)C(=O)N[C@@H](CO)C(=O)N[C@H](C(=O)N[C@@H](Cc1ccc(O)cc1)C(=O)N1CCC[C@H]1C(=O)N[C@@H](CCCNC(=N)N)C(=O)N[C@H](C(=O)N[C@@H](CCC(=O)O)C(=O)N[C@H](C(=O)NCC(=O)N[C@@H](CO)C(=O)NCC(=O)N[C@H](C(=O)N[C@@H](Cc1ccc(O)cc1)C(N)=O)[C@@H](C)O)[C@@H](C)O)[C@@H](C)O)[C@@H](C)O)C(C)C)[C@@H](C)O ({C20 diacid-γGlu}-LSGLSTAVLGRLSAELHELSTYPRTETGSGTY-NH2) | 0.024 nM | 0.028 nM | 0.064 nM | 0.034 nM | ≥ 200 µM | ≥ 200 µM | ≥ 200 µM |  | ≥ 200 µM | ≥ 200 µM | ≥ 200 µM | ≥ 200 µM | 11.8 nM |

From ChEMBL document CHEMBL4420076, “Amylin and calcitonin receptor agonist” (2017)
